According to patent US20220411525A1, “BCMA AS A TARGET FOR T CELL REDIRECTING ANTIBODIES IN B CELL LYMPHOMAS” (Janssen Pharmaceutica NV, priority 2021, published 2022):
Values joined by “and” are separate entries in the source; they are usually repeats but may differ in a detail not shown here. Equal entries are not always repeated.

Tests used:
[1] = tested on: primary CLL cells; test: Cytotoxicity assay, primary CLL cells co-cultured with healthy donor T cells; format: cell-based, human; details: for average lysis of CLL cells: 48 h; for average lysis of CLL cells / average cell death of CLL cells: 10:1 E:T, per T cell donor; for average cell death of CLL cells: 96h
Description: Since primary CLL samples express BCMA at even lower levels compared to JeKo-1 cell lines, the present inventors explored whether this expression level was still high enough to induce effective lysis of CLL cells. To assess this HD T cells were co-cultured for 48-96 h with primary CLL cells in the presence of 100 ng/mL of Teclistamab with or without 100 nM γ-secretase inhibitor.
FIGS. 5A-5C illustrate how healthy donor T cells kill primary CLL cells in presence of BCMAxCD3 DuoBody, which is largely dependent on CD8^+ T cells. Measurement of cytotoxicity after PBMCs of healthy donors were left unstimulated or stimulated with 100 ng/mL BCMAxCD3 DuoBody®, in the absence (−) or presence (+) of 100 nM γ-secretase inhibitor. PBMCs were T cells were co-cultured with primary CLL in a 10:1 E:T ratio for (FIG. 5A) 48 h or (FIG. 5B) 96 h. […] (n=8) The P value was calculated by Wilcoxon test (FIG. 5A), paired t test (FIG. 5B) or repeated measures one-way ANOVA (FIG. 5C). Data are presented as mean±SD. *P<0.05; **P<0.01; ***P<0.001.
Cytotoxicity assay. Cell lines or primary CLL samples were labelled with Cell Trace Violet (CTV, Thermo Fisher Scientific) or carboxyfluorescein diacetate succinimidyl ester (CFSE, ThermoFisher Scientific) according to manufacturer's instructions and co-cultured with healthy donor PBMCs or CLL derived (autologous) T cells in different effector-target (E:T) ratios. Where indicated prior to co-culture CD4 and CD8 T cells were isolated using MACS beads (Miltenyi), according to manufacturer's instructions. Co-cultures were in the presence of 100 ng/mL BCMAxCD3, BCMAxnull or nullxCD3. 100nM γ-secretase inhibitor (Ly411575) was added where indicated. Viability of the target cells was assessed using TO-PRO-3 (Invitrogen) and MitoTracker Orange (Invitrogen) using Flow Cytometry. Specific lysis of target cells was calculated as (% target cell death in treated sample—% cell death target cells in medium control)/(100—% cell death target cells in medium control)*100%. Samples were excluded when cell death in medium controls exceeded 50%.

[2] = tested on: B cell malignancy cell lines (RPMI-8226, JeKo-1, BCWM.1, CII); test: Cytotoxicity assay, cell lines co-cultured with healthy donor PBMCs; format: cell-based
Description: (§1) Since the different B cell malignancy cell lines express BCMA to different extents, it was explored whether co-culture of these cell lines with the BCMAxCD3 BsAb Teclistamab in presence of HD PBMCs would lead to activation of T cells. To assess this, 4 cell lines were selected based on previously determined BCMA levels: RPMI-8226 (MM, positive control; high BCMA), BCWM.1 (WM, high BCMA), CII (CLL, intermediate BCMA) and JeKo-1 (MCL, low BCMA). Cell lines and age-matched HD PBMCs were cultured in presence of 100 ng/mL Teclistamab or the control BsAbs (BCMAxnull or nullxCD3) with or without 100 nM γ-secretase inhibitor. As a positive control, anti-CD3/CD28 antibodies were added to the co-cultures to induce TCR stimulation.
(§2) FIGS. 4A-4G provide the results of the assessment, which are that BCMAxCD3 DuoBody® induces activation, degranulation, cytokine secretion and cytotoxicity by T cells in the presence of B cell malignancy cell lines. PBMCs of healthy donors were left unstimulated or stimulated with 100 ng/mL BCMAxCD3 DuoBody®, BCMAxnull, nullxCD3 or anti-CD3/CD28 antibodies. Cells were left untreated (−) or treated with 100nM γ-secretase inhibitor (+). T cells were co-cultured with cell lines RPMI-8226 (multiple myeloma), JeKo-1 (mantle cell lymphoma), BCWM.1 (Waldenstrom's macroglobulinemia) or CII (chronic lymphocytic leukemia) in a 1:1 E:T ratio. After 48 hours activation by CD25 (FIG. 4A), degranulation (FIG. 4B), secretion of IFNy (FIG. 4D), IL-2 (FIG. 4E), TNFα (FIG. 4F), and cytotoxicity (FIG. 4G) were measured by flow cytometry (n=3-14). 4 days after incubation T cell proliferation was assessed by FACS (FIG. 4C) (n=3-9).
(§3) Cytotoxicity assay. […] Viability of the target cells was assessed using TO-PRO-3 (Invitrogen) and MitoTracker Orange (Invitrogen) using Flow Cytometry. Specific lysis of target cells was calculated as (% target cell death in treated sample—% cell death target cells in medium control)/(100—% cell death target cells in medium control)*100%. […]

[3] = tested on: T cells of healthy donor PBMCs; test: Activation, degranulation and cytokine production of healthy donor T cells co-cultured with B cell malignancy cell lines; format: cell-based, human
Description: as §1, §2
(§4) Activation, cytokine production and degranulation. PBMCs from HD or CLL patients were incubated in the presence of 100 ng/mL BCMAxCD3, BCMAxnull or nullxCD3 or stimulated with CD3 (clone 1XE) and CD28 (clone 15E8) antibodies for 2 days. Where indicated HD PBMCs were co-cultured in a 1:1 E:T ratio with RPMI-8226, JeKo-1, CII or BCWM1. 100 nM γ-secretase inhibitor (Ly411575) was added where indicated. […]

[4] = tested on: autologous CLL cells; test: Cytotoxicity assay, CLL derived T cells co-cultured with autologous CLL cells; format: cell-based, human; details: 96 h, 5:1 E:T
Description: (§5) It was also assessed whether Teclistamab would induce activation and cytotoxicity of CLL derived T cells. To assess activation and degranulation, full PBMCs of CLL patients were treated with 100 ng/mL Teclistamab or control BsAbs for 96 h with or without presence of γ-secretase inhibition. […] For FIGS. 6A-6, CLL PBMCs were stimulated with 100 ng/mL BCMAxCD3, BCMAxnull, nullxCD3 or anti-CD3/CD28 antibodies. Flow cytometry analysis of (FIG. 6A) CD25 and (FIG. 6B) CD107a were performed after 4 days (n=3-5). For FIG. 6C, T cells from CLL patients were isolated and co-cultured in a 5:1 E:T ratio with their autologous CLL for 96 h in the presence or absence of 100 ng/mL BCMAxCD3 DuoBody and were left untreated (−) or treated with 100 nM γ-secretase inhibitor (+). (n=6) The P value was calculated ordinary one-way ANOVA (FIGS. 6A-6B) or paired t test (FIG. 6C). Data are presented as mean±SD. *P<0.05; **P<0.01; ***P<0.001; ****P<0.0001.
as §3

[5] = tested on: CLL derived T cells; test: Activation and degranulation of CLL derived T cells in CLL PBMCs; format: cell-based, human; details: 96 h
Description: as §5, §4

[6] = tested on: T cells of healthy donor PBMCs; test: T cell proliferation of healthy donor PBMCs co-cultured with cell lines; format: cell-based, human; details: co-culture of HD T cells with B cell malignancy cell lines, 4 days
Description: as §2
T cell proliferation. PBMCs from HD patients were labelled with CTV and cultured alone or in 1:1 E:T ratio with RPMI-8226, JeKo-1, CII or BCWM1. PBMCs were incubated in the presence of 100 ng/mL BCMAxCD3, BCMAxnull or nullxCD3 or stimulated with CD3 (clone 1XE) and CD28 (clone 15E8) antibodies. 100 nM γ-secretase inhibitor (Ly411575) was added where indicated. After 4 days proliferation was measured by flow cytometry as described above.

[7] = 100 ng/mL, no γ-secretase inhibitor
[8] = 100 ng/mL, with 100 nM γ-secretase inhibitor
[9] = 100 ng/mL plus 100 nM γ-secretase inhibitor

Teclistamab: BCMAxCD3 bispecific antibody developed with Genmab DuoBody technology, provided by Janssen Pharmaceuticals
average lysis of CLL cells [1, 7]: 12.9% and 16.4%
average lysis of CLL cells [1, 8]: 14.9% and 21.6%
killing by HD CD4+ T cells ([1]; 100 ng/mL, 96 h, 5:1 E:T, CD4+ T cells only): not able to induce killing
lysis by HD CD8+ T cells ([1]; 100 ng/mL, 96 h, 5:1 E:T, CD8+ T cells): up to 60%
average cell death of CLL cells [1, 7]: 15.8% and 20%
average cell death of CLL cells [1, 8]: 25,8% and 27.4%
lysis of CLL cells by healthy donor T cells ([1]; summary statement, in presence of teclistamab): up to 40%
cytotoxicity upon addition of γ-secretase inhibitor [2, 9]: did not improve
lysis of JeKo-1 compared to BCWM.1 or CII cell lines ([2]; 100 ng/mL, JeKo-1 (low BCMA)): more efficiently lysed
cell death of target cells ([2]; 100 ng/mL, co-culture with HD T cells, 1:1 E:T, 48 hours): induced cell death of target cells
T cell activation and proliferation upon increasing BCMA levels by γ-secretase inhibition [3, 9]: not further enhanced
activation marker CD25 on CD4+ and CD8+ T cells ([3]; 100 ng/mL, 2 days co-culture with cell lines, 1:1 E:T): upregulation of the activation marker CD25
CD25 on T cells, PBMCs cultured without a target cell ([3]; 100 ng/mL, no target cell): did not lead to upregulation of CD25
lysis of autologous CLL cells upon addition of γ-secretase inhibition [4, 9]: slightly increased
mean lysis of autologous CLL cells [4, 7]: 40%
CD25 activation in T cells of CLL patients upon addition of γ-secretase inhibitor ([5]; 100 ng/mL plus γ-secretase inhibitor): enhanced
CD25 activation in CD4+ and CD8+ T cells of CLL patients ([5]; 100 ng/mL, CLL PBMCs): trend towards increased CD25 activation
T cell proliferation [6]: resulted in T cell activation, proliferation and cytotoxicity
